Patent US10869924B2, “PD-L1 antagonist combination treatments” (MERCK PATENT GMBH, priority 2015, dated 2020)

How the values were obtained:
B16F10 melanoma = test: Subcutaneous B16F10 melanoma model, anti-4-1BB and avelumab (Example 3); type: in vivo; conditions: anti-4-1BB 0.1 mg/mL, avelumab 1 mg/mL, 0.2 mL per mouse ip, 3 doses 3 to 4 days apart, C57BL/6 mice
Description: (§1) Six (6)- to 8-week old female C57BL/6 mice were purchased from the Jackson Laboratories. All animals were housed in a pathogen free vivarium facility at Rinat and experiments were conducted according to the protocols in accordance with the Institutional Animal Care and Use Committee (IACUC) guidelines.
The B16F10 melanoma cell line was purchased from American Type Culture Collection (ATCC). The MC38 colon carcinoma cell line was kindly provided by Dr. Antoni Ribas at University of California, Los Angeles, Calif. Cells were cultured in Dulbecco's Modified Eagle's Medium (DMEM) supplemented with 10% fetal bovine serum (FBS), 2 mM L-glutamine at 37° C. in 5% carbon dioxide (CO2), and IMPACT-tested for pathogens at Research Animal Diagnostic Laboratory (RADIL) (Columbia, Mo.). Pathogen-free cells growing in an exponential growth phase were harvested and used for tumor inoculation.
Therapeutic mouse anti-mouse 4-1BB mAb (mouse immunoglobulin G1 [mIgG1]), derived from the parental clone MAB9371 (R&D Systems), was prepared in-house. Avelumab was provided by Merck Serono. Isotype control mIgG1 (clone: MOPC-21) was purchased from BioXcell. Human IgG1 was prepared in-house. Anti-4-1BB and avelumab were diluted to concentrations of 0.1 mg/mL and 1 mg/mL, respectively, in phosphate buffered saline (PBS) (Life Technologies), and dosed at 0.2 mL per mouse intraperitoneally (ip) for 3 doses 3 to 4 days apart.
C57BL/6 mice were inoculated subcutaneously at the right flank with 0.2×10^6 B16F10 or 0.5×10^6 MC38 cells in 0.1 mL of serum-free DMEM. When tumors reached target size, mice were randomized into treatment groups. Treatment was started on the same day as randomization. Tumor size was measured twice weekly in 2 dimensions using a caliper, and the volume was expressed in cubic millimeters using the formula: V=0.5 L×W^2 where L is the longest diameter of the tumor and W is the diameter perpendicular to L. Body weight was recorded weekly.
Results were expressed as mean±SEM. Statistical analyses were performed using GraphPad Prism 6.0. One-way or 2-way ANOVA was applied to compare the statistical differences among multiple groups relative to the isotype control. P<0.05 was considered as significant difference.
Two murine models were used to evaluate the therapeutic efficacy of anti-4-1BB in combination with avelumab. In the B16F10 melanoma model, the average starting tumor size was 67 to 78 mm^3 (range 44 to 114 mm^3; n=7 animals per group) (Table 5). By Day 26 post tumor inoculation, the tumors for isotype, anti-4-1BB alone, and avelumab alone groups reached an average of 1206±397 mm^3, 1979±425 mm^3, and 2112±429 mm^3, respectively (Table 5). By contrast, dramatic tumor suppression (average of 341±146 mm^3) was observed when animals were administered with anti-4-1BB and avelumab concurrently (p<0.0001 vs single agent alone groups) (Table 5).

MC38 colon carcinoma = test: Subcutaneous MC38 colon carcinoma model, avelumab, anti-4-1BB and anti-M-CSF (Example 5); type: in vivo, mouse; conditions: anti-4-1BB 1 mg/kg, anti-M-CSF 15 mg/kg, Avelumab 10 mg/kg, ip, 3 doses 3 to 4 days apart, C57BL/6 mice
Description: as §1
The MC38 colon carcinoma cell line was kindly provided by Dr. Antoni Ribas at University of California, Los Angeles, Calif. Cells were cultured in Dulbecco's Modified Eagle's Medium (DMEM) supplemented with 10% fetal bovine serum (FBS), 2 mM L glutamine at 37° C. in 5% carbon dioxide (CO2), and IMPACT-tested for pathogens at Research Animal Diagnostic Laboratory (RADIL) (Columbia, Mo.). Pathogen-free cells growing in an exponential growth phase were harvested and used for tumor inoculation.
Therapeutic mouse anti-mouse 4-1BB mAb (mouse immunoglobulin G1 [mIgG1]), derived from the parental clone MAB9371 (R&D Systems), was prepared in-house. Avelumab was provided by Merck Serono. Rat anti-mouse M-CSF (clone 5A1), rat IgG1 (clone HRPN) and mIgG1 (clone: MOPC-21) isotype controls were purchased from BioXcell. Human IgG1 isotype was prepared in-house. Anti-4-1BB, avelumab and anti-M-CSF mAbs were diluted to concentrations of 0.1 mg/mL and 1 mg/mL, and 1.5 mg/mL, respectively, in phosphate buffered saline (PBS) (Life Technologies), and dosed at 0.2 mL per mouse intraperitoneally (ip) for 3 doses 3 to 4 days apart.
C57BL/6 mice were inoculated subcutaneously at the right flank with 0.5-1×10^6 MC38 cells in 0.1 mL of DMEM. When tumors reached an average of ˜60 mm^3 (range 41-93 mm^3), mice were randomized into groups of 10 animals per group, and treatment was started at the same day. Tumor size was measured in two dimensions using a caliper, and the volume was expressed in mm^3 using the formula: V=0.5 L×W^2 where L and W are the long and short diameters of the tumor, respectively. Body weight was recorded weekly.
Results were expressed as mean±SEM (Table 8). Statistical analyses were performed using GraphPad Prism 6.0. One-way or two-way ANOVA was applied to compare the statistical differences among multiple groups relative to isotype controls. P<0.05 was considered as significant difference.

Substance: Avelumab: fully human mAb of the IgG1 isotype that specifically targets and blocks PD-L1
- Tumor Measurements of Subcutaneous B16F10 Melanoma, Mean tumor volume (B16F10 melanoma; Day 13 post tumor inoculation (starting tumor size)): 78 mm^3
- Tumor Measurements of Subcutaneous B16F10 Melanoma, Mean tumor volume (B16F10 melanoma; Day 17 post tumor inoculation): 327 mm^3
- Tumor Measurements of Subcutaneous B16F10 Melanoma, Mean tumor volume (B16F10 melanoma; Day 20 post tumor inoculation): 654 mm^3
- Tumor Measurements of Subcutaneous B16F10 Melanoma, Mean tumor volume (B16F10 melanoma; Day 24 post tumor inoculation): 1304 mm^3
- Tumor Measurements of Subcutaneous B16F10 Melanoma, Mean tumor volume (B16F10 melanoma; Day 26 post tumor inoculation): 2112 mm^3
- Tumor Measurements of Subcutaneous B16F10 Melanoma, Mean tumor volume (B16F10 melanoma; Day 26 post tumor inoculation, listed as avelumab): 2112±429 mm^3
- Mean Tumor Size (MC38 colon carcinoma; Day 7 post-tumor inoculation (start of treatment)): 63 mm^3
- Mean Tumor Size (MC38 colon carcinoma; Day 10 post-tumor inoculation): 127 mm^3
- Mean Tumor Size (MC38 colon carcinoma; Day 14 post-tumor inoculation): 254 mm^3
- Mean Tumor Size (MC38 colon carcinoma; Day 16 post-tumor inoculation): 384 mm^3
- Mean Tumor Size (MC38 colon carcinoma; Day 18 post-tumor inoculation): 523 mm^3
- Mean Tumor Size (MC38 colon carcinoma; Day 21 post-tumor inoculation): 714 mm^3
- Mean Tumor Size (MC38 colon carcinoma; Day 23 post-tumor inoculation): 901 mm^3
